Assay results reported in US20200354331A1, “ICARIIN DERIVATIVES” (H. LEE MOFFITT CANCER CENTER AND RESEARCH INSTITUTE, INC., priority 2014, published 2020).
Entries after “also recorded” stand apart in the source; their conditions may differ. Like-named read-outs stand apart in the source and are kept apart here.

Columns and labels:
MDS BMNCs = experiment: Colony formation (CFU-GM, BFU-E) in MethoCult H4434; format: cell-based; settings: 20 uM for 48 h, 14 days culture
Description: Bone marrow mononuclear cells (BMCs) from MDS patients were treated with 20 uM ICT for 48 h, and then seeded into MethoCult H4434 complete medium, the mixture is placed in 35-mm culture dishes (1×10^5 cells/each dish) and incubated at 37° C. in 5% CO2 for 14 days. After incubation, colonies of CFU-GM and BFU-E were identified and counted using an inverted light microscope, as shown in FIGS. 21A and 21B respectively. Each point represents the mean results of […], and each experimental point represents duplicate plates. Results are expressed as mean value±SD.

Bone marrow [1] = experiment: IC50 / toxicity in cells; format: cell-based; settings: Mus musculus
Description: (§1) Specifically, BMNCs from three healthy donors were treated with different concentrations of ICA or ICT for 48 hours after which colony formation was assessed using MethoCult H4434 complete medium with cytokines. The mixture was placed in 35-mm culture dishes (1×10^5 cells/each dish) and incubated at 37° C. in 5% CO2 for approximately 7-14 days. After incubation, colonies of CFU-E, BFU-E and CFU-GM were indentified and counted using an inverted light microscope. […] Although, these cells were obtained from spleens, it was also found ICA/ICT has a similar effect on MDSCs isolated from tumor tissue. Here, Gr1^+ cells were isolated from tumors of 4T1 tumor-bearing mice. MDSCs were treated with 20 μM of ICA, ICT, or DMSO for 48 h. Bars represent the relative percentage of MDSC as compared to DMSO treated cells measured by flow cytometry (FIG. 3A). The production of ROS (FIG. 3B) and NO (FIG. 3C) activity of purified MDSC from tumor tissue was also measured.

[2] = system: MDSCs isolated from tumors of 4T1 tumor-bearing mice; experiment: ROS and NO production of MDSC isolated from tumors; format: cell-based; settings: MDSCs from tissue of tumor-bearing mice, 20 μM, 48 h
Description: FIGS. 3A-3C depicts the effect of ICA and ICT on expansion of MDSCs isolated from tumor and their ROS and NO production. Gr1^+ cells were isolated from tumors of 4T1 tumor-bearing mice. (FIG. 3A) MDSCs were treated with 20 μM of ICA, ICT, or DMSO for 48 h. Bars represent the relative percentage of MDSC as compared to DMSO treated cells measured by flow cytometry. (FIG. 3B) Production of ROS and (FIG. 3C) NO activity of purified MDSC from tumor tissue.
as §1, with “MDSCs were treated with 20 μM of ICA, ICT, or DMSO for 48 h.” left out

PBMC [3] = experiment: IC50 / toxicity in cells; format: cell-based
PP2A bound to PDE5 = biological target: T1, PP2A bound to PDE5 (Homo sapiens, UniProt O76074); experiment: Co-immunoprecipitation of PDE5 with PP2A in PBMC; format: cell-based; settings: 48 hours
T1 construct: Cells were then lysed and PDE5 was immunoprecipitated following a Western Blot with anti-PP2A; endogenous in cells; host or cells: human PBMC
Description: Human PBMC were cultured for 48 hours with media, DMSO or increasing doses of ICT (1, 5, 10, 20 μM respectively). Cells were then lysed and PDE5 was immunoprecipitated following a Western Blot with anti-PP2A. Coomasie blue staining of the membrane is shown as loading control.
To understand if there is a link correlating S100A9/SIGLEC3 and PDE5 activation, SJCRH30 cells were transfected with either vector, S100A9 or SIGLEC 3. Seventy two hours post-transfection cells were lysed and assessed by Western Blot for either PDE5 or its phosphorylated counterpart.

[4] = biological target: GMP-specific recombinant bovine phosphodiesterase Type V (Bos taurus, UniProt Q28156); experiment: PDE5 phosphodiesterase inhibition, PDE-Glo system; format: biochemical
U937 [5] = experiment: IC50 / toxicity in cells; format: cell-based; settings: Homo sapiens, U-937
IL-10 and TGFb = experiment: Expression of IL-10 and TGFb on LPS-treated PBMC (Q-PCR); format: cell-based; settings: 48 hours, 20 μM
Description: The relative expression of IL-10 and TGFb by Q-PCR are shown in FIGS. 19A and 19B, respectively. Healthy PBMC were cultured for 48 hours with 20 μM ICT and the gene expression measured by the DDCt method. The experimental control is PBMC treated with DMSO for 48 hours and the internal control was GAPDH. Error bars indicate the SEM of three separate donors/experiments.

[6] = system: IL-10, TGFb, TNFa, ARG2 and NOS2; experiment: Expression of suppressive factors in PBMC (Q-PCR); format: cell-based; settings: healthy PBMC, 48 hours, 20 μM
Description: Healthy PBMC were cultured for 48 hours with 20 μM the gene expression of suppressive factors measured by the DDCt method. The experimental control is PBMC treated with DMSO and the internal control was GAPDH. Error bars indicate the SEM of three separate donors/experiments.

Raji = experiment: IC50 of ICT in cell lines; format: cell-based; settings: Homo sapiens
4T1 [7] = experiment: IC50 of ICT in cell lines; format: cell-based; settings: Mus musculus
4T1 [8] = experiment: Apoptosis rates of ICT in cell lines; format: cell-based
K562 [9] = experiment: IC50 of ICT in cell lines; format: cell-based; settings: Homo sapiens
MCF-7 [10] = experiment: IC50 of ICT in cell lines; format: cell-based; settings: Homo sapiens, MCF7
Bone marrow [11] = experiment: Apoptosis rates of ICT in cell lines; format: cell-based
U937 [12] = experiment: Apoptosis rates of ICT in cell lines; format: cell-based
K562 [13] = experiment: Apoptosis rates of ICT in cell lines; format: cell-based
B16 [14] = experiment: Apoptosis rates of ICT in cell lines; format: cell-based
MCF-7 [15] = experiment: Apoptosis rates of ICT in cell lines; format: cell-based
B16 [16] = experiment: IC50 of ICT in cell lines; format: cell-based; settings: Mus musculus
PBMC [17] = experiment: Apoptosis rates of ICT in cell lines; format: cell-based

## COc1ccc(-c2oc3c(CC=C(C)C)c(O[C@@H]4O[C@H](CO)[C@@H](O)[C@H](O)[C@H]4O)cc(O)c3c(=O)c2O[C@@H]2O[C@@H](C)[C@H](O)[C@@H](O)[C@H]2O)cc1 [ICA, Icariin]
MDS BMNCs
  hematopoiesis of MDS BMNCs (CFU-GM, BFU-E colonies): increase the hematopoiesis of MDS BMNCs
Bone marrow [1]; BMMC
  IC50: > 100 µM
[2]
  NO and ROS production by MDSCs: inhibit NO and ROS production
PBMC [3]
  IC50: > 100 µM
PP2A bound to PDE5
  association of PP2A with PDE5: decreased
[4]
  phosphodiesterase (enzymatic) activity of PDE5: block the phosphodiesterase activity of PDE5; also recorded: inhibit the enzymatic activity of PDE5
U937 [5]
  IC50: > 100 µM

## COc1ccc(-c2oc3c(CCC(C)(C)O)c(O)cc(O)c3c(=O)c2O)cc1 [ICT, 3,5,7-trihydroxy-4′-methoxy-8-(3-hydroxy-3-methylbutyl)-flavone]
IL-10 and TGFb
  expression of IL-10 and TGFb on LPS-treated PBMC: down-regulate the expression of the suppressive cytokine IL-10 and TGFb on LPS-treated PBMC
[6]
  expression of suppressive factors in PBMC: down-regulate the expression of suppressive factors in PBMC
Raji
  IC50: 25.6 µM
4T1 [7]
  IC50: 6.7 µM
4T1 [8]; 4T1, 5 μM
  Apoptosis rates: 4.0%
4T1 [8]; 4T1, 10 μM
  Apoptosis rates: 6.3%
4T1 [8]; 4T1, 20 μM
  Apoptosis rates: 7.1%
K562 [9]
  IC50: 50.5 µM
MCF-7 [10]
  IC50: 23.2 µM
Bone marrow [11]; 5 μM
  Apoptosis rates: 2.7%
Bone marrow [11]; 10 μM
  Apoptosis rates: 4.3%
Bone marrow [11]; 20 μM
  Apoptosis rates: 4.8%
MDS BMNCs
  hematopoiesis of MDS BMNCs (CFU-GM, BFU-E colonies): increase the hematopoiesis of MDS BMNCs
Bone marrow [1]; Bone marrow (bone marrow mononuclear cells, BMMC), read-out: IC50
  IC50: > 100 µM
U937 [12]; U937, 5 μM
  Apoptosis rates: 3.1%
U937 [12]; U937, 10 μM
  Apoptosis rates: 2.6%
U937 [12]; U937, 20 μM
  Apoptosis rates: 2.7%
[2]
  NO and ROS production by MDSCs: inhibit NO and ROS production
K562 [13]; K562, 5 μM
  Apoptosis rates: 5.5%
K562 [13]; K562, 10 μM
  Apoptosis rates: 6.7%
K562 [13]; K562, 20 μM
  Apoptosis rates: 7.8%
B16 [14]; B16, 5 μM
  Apoptosis rates: 2.5%
B16 [14]; B16, 10 μM
  Apoptosis rates: 3.8%
B16 [14]; B16, 20 μM
  Apoptosis rates: 3.5%
PBMC [3]; read-out: IC50
  IC50: > 100 µM
MCF-7 [15]; MCF-7, 5 μM
  Apoptosis rates: 3.9%
MCF-7 [15]; MCF-7, 10 μM
  Apoptosis rates: 4.1%
MCF-7 [15]; MCF-7, 20 μM
  Apoptosis rates: 6.1%
PP2A bound to PDE5
  association of PP2A with PDE5: decreased
B16 [16]
  IC50: 25.8 µM
PBMC [17]; 5 μM
  Apoptosis rates: 4.6%
PBMC [17]; 10 μM
  Apoptosis rates: 5.5%
PBMC [17]; 20 μM
  Apoptosis rates: 6.9%
[4]
  phosphodiesterase (enzymatic) activity of PDE5: block the phosphodiesterase activity of PDE5; also recorded: inhibit the enzymatic activity of PDE5
U937 [5]; U937, read-out: IC50
  IC50: > 100 µM
